Read-outs that look alike come from different tables or passages of the source.
Key:
[1] = test system: lipidic peroxidation of membrane lipids in rat hepatic microsomes; test: In vitro antioxidant activity (TBARS test); format: biochemical; details: read-out: Antioxidant activity IC50 μM (CL 95%)
Method: The antioxidant properties of compound (1) (example 1), its precursors (3-methyl-3-(2,4,5-trimethyl-3,6-dioxocyclohexa-1,4-dien-1-yl)butanoic acid, described in Example 1 Step 2 (Intermediate 2) and reference antioxidant compounds were assessed after NADPH-induced lipidic peroxidation of membrane lipids in rat hepatic microsomes using the detection of 2-thiobarbituric acid reactive substances (TBARS) by visible spectroscopy.
Hepatic microsomal membranes from male Wistar rats (200-250 g) were prepared by differential centrifugation (8000 g, 20 min; 120000 g, 1 h) in a HEPES/sucrose buffer (10 mM, 250 mM, pH 7.4) and stored at −80° C. Incubation was performed at 37° C. in a Tris-HCl/KCl (100 mM/150 mM, pH 7.4) containing microsomal membranes (2 mg prot/mL), sodium ascorbate (100 μM), and DMSO solutions of the tested compounds.
Lipid peroxidation was initiated by adding ADP-FeCl3 and NADPH (Method A) or 2.5 μM FeSO4 (Method B) (as described by Boschi D. et al., J. Med. Chem. 2006, 49:2886-2897). Aliquots were taken from the incubation mixture at 5, 15, and 30 min and treated with trichloroacetic acid (TCA) 10% w/v.
Lipid peroxidation was assessed by spectrophotometric (543 nm) determination of the TBARS consisting mainly of malondialdehyde (MDA). TBARS concentrations (expressed in nmol/mg protein) were obtained by interpolation with a MDA standard curve. The antioxidant activity of tested compounds was evaluated as the percent inhibition of TBARS production with respect to control samples, using the values obtained after 30 min of incubation. IC50 values were calculated by nonlinear regression analysis.

[2] = test system: lipidic peroxidation of membrane lipids in rat hepatic microsomes; details: Method B; values from Chegaev et al. (footnotes b, c); read-out: Antioxidant activity IC50 μM (CL 95%); cited from earlier work
[3] = test system: hypertonic saline-induced IOP increase; test: IOP lowering activity in hypertonic saline-induced IOP increase in rabbits, versus ISMN (Example 17); format: in vivo, New Zealand White rabbits; details: for IOP change (mmHg): dose 1%, versus vehicle and versus basal IOP
Method: The present study evaluated the intraocular pressure lowering effect of single application of compound (15) (Example 12) and of ISMN (isosorbide-5-mononitrate) used as reference compound, in an animal model of elevated IOP.
(§1) Adults male New Zealand White rabbits weighting 1.8-2.0 Kg were used in the experiments.
(§2) Animals were anesthetized using 20 mg/ml/kg of sodium pentobarbital. The increase in IOP was induced by the injection of 0.1 ml of hypertonic saline solution (5%) into the vitreous bilaterally (Krauss et al., 2011, Orihashi et al., 2005).
IOP was measured using a Tono-Pen XL prior to hypertonic saline injection (basal) and at 30, 60, 90, 120, 240 and 360 min thereafter. Vehicle (5% cremophor-EL; 0.3% DMSO; 0.2 mg/ml Benzalkonium chloride in PBS pH 6.0,) or tested compound was instilled as eye drops immediately after hypertonic saline injection. Eyes were randomly assigned to different treatment groups. Vehicle or compounds were directly instilled into the conjunctiva pocket at the desired doses. One drop of 0.2% oxybuprocaine hydrochloride (Novesine, Sandoz) diluted 1:1 with saline was instilled in each eye immediately before each set of pressure measurements.
Results are reported in Table 4 and they are expressed as IOP change (at 30 and 60 minutes following topical administration) versus vehicle and versus IOP at basal before hypertonic saline injection.

[4] = test system: hypertonic saline-induced IOP increase; test: IOP lowering activity in hypertonic saline-induced IOP increase in rabbits (Example 11); format: in vivo, New Zealand White rabbits
Method: The Intraocular pressure (IOP) lowering activity of compound (1) (Example 1) was assessed in an animal model of elevated IOP.
as §1, §2
IOP was measured using a Tono-Pen XL prior to hypertonic saline injection (basal) and at 30, 60, 90, 120, 240 and 360 min thereafter. Vehicle (5% cremophor-EL; 0.3% DMSO; 0.2 mg/ml Benzalkonium chloride (bac) in PBS pH 6.0,) or compound of the invention were instilled as eye drops immediately after hypertonic saline injection. Eyes were randomly assigned to different treatment groups. Vehicle or compounds of the invention were directly instilled into the conjunctiva pocket at the desired doses. One drop of 0.2% oxybuprocaine hydrochloride (Novesine, Sandoz) diluted 1:1 with saline was instilled in each eye immediately before each set of pressure measurements.
Results are reported in Table 2 in which the ocular hypotensive activity of compound (1) is expressed as mean average of IOP measurements at 60 and 120 minutes following topical administration.

[5] = test system: hypertonic saline-induced IOP increase; test: IOP lowering activity in hypertonic saline-induced IOP increase in rabbits, two concentrations (Example 16); format: in vivo, New Zealand White rabbits; details: for IOP change (mmHg): versus vehicle and versus basal IOP
Method: The present study evaluated the intraocular pressure lowering effect of single applications of two different concentrations (1% and 0.3%) of compound (1) in rabbits with experimental increase in IOP.
as §1
The transient increase in IOP was induced by the injection of 0.1 ml of hypertonic saline solution (5%) into the vitreous bilaterally (Krauss et al., 2011, Orihashi et al., 2005).
IOP was measured using a Tono-Pen XL prior to hypertonic saline injection (basal) and at 30, 60, 120 and 240 min thereafter. Vehicle (5% cremophor-EL; 0.3% DMSO; 0.2 mg/ml Benzalkonium chloride in PBS pH 6.0) or compound was instilled as eye drops immediately after hypertonic saline injection. Eyes were randomly assigned to different treatment groups. Vehicle and compound were directly instilled into the conjunctiva pocket at the desired doses. One drop of 0.4% oxybuprocaine hydrochloride (Novesine, Sandoz) was instilled in each eye immediately before each set of pressure measurements.
Results are reported in Table 3 and they are expressed as IOP change (at 60 and 120 minutes following topical administration) versus vehicle and versus IOP at basal before hypertonic saline injection.

[6] = Method A: lipid peroxidation induced by ADP-FeCl3 and NADPH, inhibition of TBARS production after 30 min incubation at 37° C.

COc1cc(/C=C/C(=O)O)ccc1O [Ferulic acid, reference compound]
IC50 ([1]; Method B, footnote a: tested at 1 mM concentration): 50.5 ± 0.4 µM

CC1=NN(c2ccccc2)C(=O)C1 [Edavarone]
IC50 [2]: 17 µM

O=C(O)/C=C/c1ccc(O)c(O)c1 [Caffeic acid, reference compound]
IC50 ([1]; Method B: lipid peroxidation induced by FeSO4 and ascorbic acid, inhibition of TBARS production after 30 min incubation at 37° C.): 33 µM

CC1=C(C)C(=O)C(C(C)(C)CC(=O)O)=C(C)C1=O [Intermediate 2, 3-methyl-3-(2,4,5-trimethyl-3,6-dioxocyclohexa-1,4-dien-1-yl)butanoic acid]
IC50 [1, 6]: 157 µM

COc1ccc2[nH]cc(CCNC(C)=O)c2c1 [Melatonin]
IC50 [2]: 476 µM

CC1=C(C)C(=O)C(C(C)(C)CC(=O)OCCCC[C@@H](CO[N+](=O)[O-])O[N+](=O)[O-])=C(C)C1=O [Compound (15), (S)-5,6-bis(nitrooxy)hexyl 3-methyl-3-(2,4,5-trimethyl-3,6-dioxocyclohexa-1,4-dienyl)butanoate]
IOP change (mmHg) ([3]; 30 minutes): −6.5 ± 2.6 mmHg | IOP change (mmHg) ([3]; 60 minutes): −4.9 ± 2.4 mmHg | IOP reduction compared to ISMN (in words) ([3]; single application, 1%): significantly higher IOP reduction as compared to ISMN treated group

CC1=C(C)C(=O)C(C(C)(C)CC(=O)OCCCCO[N+](=O)[O-])=C(C)C1=O [Compound (1), 4-(nitrooxy)butyl 3-methyl-3-(2,4,5-trimethyl-3,6-dioxocyclohexa-1,4-dienyl)butanoate]
IC50 [1, 6]: 28 µM | IOP (mmHg) ([4]; 60 minutes following topical administration (eye drops)): 29 ± 7.8 mmHg | IOP (mmHg) ([4]; 120 minutes following topical administration (eye drops)): 18.9 ± 4.1 mmHg | IOP change (mmHg) ([5]; dose 0.3%, 60 minutes): −5.5 ± 3.1 mmHg | IOP change (mmHg) ([5]; dose 0.3%, 120 minutes): −5.7 ± 2.1 mmHg | IOP change (mmHg) ([5]; dose 1%, 60 minutes): −9.1 ± 3.4 mmHg | IOP change (mmHg) ([5]; dose 1%, 120 minutes): −9.5 ± 2.2 mmHg | IOP reduction (in words) ([5]; single application, both doses (1% and 0.3%)): significant IOP reduction

O=[N+]([O-])O[C@@H]1CO[C@H]2[C@@H]1OC[C@@H]2O [ISMN, isosorbide-5-mononitrate, reference compound]
IOP change (mmHg) ([3]; 30 minutes): −2.6 ± 3.5 mmHg | IOP change (mmHg) ([3]; 60 minutes): −0.7 ± 2.9 mmHg
